# Laboratory results as given in patent US12522579B2, “Monoamine oxidase B imaging probe” (TOHOKU UNIVERSITY, priority 2018, dated 2026).
# Tests used:
# MAO-B [1] = target: T1, MAO-B (Homo sapiens (Human), UniProt P27338); assay: Competitive binding test against MAO-B with [3H] THK-5351; conditions: for IC50: MAO-B membrane fractions, label ligand [3H] THK-5351; for binding to MAO-B (in words): competitive binding test
# Protocol: MAO-B (M7441) was purchased from Sigma Aldrich Co. LLC (St. Louis, MO). The MAO-B membrane fractions (0.5 μg), and 0.1 to 10,000 nM of [3H] […] The reaction solution was transferred to MultiScreen HTS 96-well […] filtration plate (Millipore, Billerica, MA), and a B/F separation was conducted with a MultiScreen HTS Vacuum Manifold, and the mixture was washed with Dulbecco's PBS, and 0.1% BSA three times, and the filter was incubated with 2 mL of Scintillation fluid (Emulssifer-Safe; Perkin Elemer, Boston, MA), and a radio activity was measured with a beta counter (LS6500 liquid scintillation counter, Beckman Counter, Brea, CA). IC50 value was calculated by using Graph Pad Prism Version 7 (GraphPad Software, San Diego, CA).
# MAO-A = MAO-A (Homo sapiens (Human), UniProt P21397); assay: Competitive binding test against MAO-A with [18F] Fluoroethyl harmine; conditions: for IC50: label ligand [18F] Fluoroethyl harmine; for binding against MAO-A (in words): competitive binding test
# Sequence of MAO-A (P21397 whole entry): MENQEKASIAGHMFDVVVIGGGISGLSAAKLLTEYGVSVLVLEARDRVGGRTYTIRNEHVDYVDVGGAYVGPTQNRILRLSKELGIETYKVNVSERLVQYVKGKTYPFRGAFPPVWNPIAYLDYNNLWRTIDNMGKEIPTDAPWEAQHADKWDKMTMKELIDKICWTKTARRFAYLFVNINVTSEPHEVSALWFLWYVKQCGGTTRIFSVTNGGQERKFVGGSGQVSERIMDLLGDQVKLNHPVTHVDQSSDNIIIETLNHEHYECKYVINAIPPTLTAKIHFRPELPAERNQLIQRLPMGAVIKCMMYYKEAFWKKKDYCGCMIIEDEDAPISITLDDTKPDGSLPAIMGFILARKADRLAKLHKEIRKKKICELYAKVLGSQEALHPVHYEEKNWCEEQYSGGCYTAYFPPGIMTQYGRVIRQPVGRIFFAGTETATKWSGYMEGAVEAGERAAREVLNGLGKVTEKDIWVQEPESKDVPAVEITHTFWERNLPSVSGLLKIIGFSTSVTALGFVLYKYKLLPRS
# Protocol: MAO-A (M7316) was purchased from Sigma Aldrich Co. LLC (St. Louis, MO). The […] (0.5 μg) and 0.1 to 10,000 nM of [^18F] Fluoroethyl harmine (10 μCi/mL, 2 nM) […] were mixed (200 μL), and the mixture was reacted at room temperature for 1 hour. The reaction solution was transfered to MultiScreen HTS 96-well 0.65 μm filtration plate (Millipore, Billerica, MA), and a B/F separation was conducted with MultiScreen HTS Vacuum Manifold, and washed with Dulbecco's PBS and 0.1% BSA three times, and a radioactivity contained in a filter was measured with a gamma counter (AccFLEX γ7000, manufactured from ALOKA Co. Ltd.). The IC50 value was calculated similarly to the case of MAO-B.
# tau = tau (Homo sapiens, UniProt P10636); assay: Competitive binding against tau in Alzheimer's disease brain with [3H] MK-6240; conditions: for IC50: Alzheimer's disease brain (Braak stage VI), label ligand [3H] MK-6240; for binding to tau (in words): competitive binding test
# Sequence of tau (P10636 2-758 limits assumed): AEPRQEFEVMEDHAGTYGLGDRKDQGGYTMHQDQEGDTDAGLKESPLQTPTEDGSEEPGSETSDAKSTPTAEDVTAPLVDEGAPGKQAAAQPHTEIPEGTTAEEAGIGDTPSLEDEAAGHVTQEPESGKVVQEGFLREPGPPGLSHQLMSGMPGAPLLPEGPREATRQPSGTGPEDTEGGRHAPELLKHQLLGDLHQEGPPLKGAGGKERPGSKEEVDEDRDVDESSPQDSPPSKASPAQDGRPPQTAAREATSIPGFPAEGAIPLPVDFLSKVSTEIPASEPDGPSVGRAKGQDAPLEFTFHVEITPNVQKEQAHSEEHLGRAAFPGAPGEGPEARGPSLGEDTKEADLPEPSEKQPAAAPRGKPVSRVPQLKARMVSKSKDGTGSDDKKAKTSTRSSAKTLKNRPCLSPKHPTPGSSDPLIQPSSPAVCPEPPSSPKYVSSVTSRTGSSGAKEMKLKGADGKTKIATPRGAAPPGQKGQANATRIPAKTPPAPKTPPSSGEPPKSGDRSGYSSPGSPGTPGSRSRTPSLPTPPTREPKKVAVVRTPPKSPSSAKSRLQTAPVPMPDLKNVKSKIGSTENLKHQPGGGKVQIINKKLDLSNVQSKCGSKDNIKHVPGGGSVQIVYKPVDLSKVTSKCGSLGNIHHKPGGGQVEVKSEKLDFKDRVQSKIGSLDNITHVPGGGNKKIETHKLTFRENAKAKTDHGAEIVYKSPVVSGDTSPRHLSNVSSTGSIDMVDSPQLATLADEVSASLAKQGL
# Protocol: A binding affinity against tau containined in a AD brain was conducted by using Alzheimer's disease brain (Braak stage VI) and [3H] MK-6240 (manufactured by Metck & Co) as a label ligand. The IC50 value was calculated similarly to the case of MAO-B.
# MAO-B [2] = target: T1, MAO-B; assay: In vitro autoradiography of human necropsy brain sections; type: binding
# Protocol: Each […] slice frozen section of a normal necropsy brain (person) and an Alzheimer's disease necropsy brain (person; neurofibrillary tangles stage was Braak stage VI) was dried at room temperature, and phosphate buffered saline (PBS) was added thereto and the wetting treatment was consucted for 30 minutes. Pre-incubation was conducted for 30 minutes by using PBS containing 1% bovine serum albumin (BSA). A PBS (370 kBq/mL) containing 1% BSA of the ^18F labeled compound were added dropwise to the section, and the reaction was conducted at room temperature for 30 minutes. In order to evaluate a specific binding to MAO-B, a similar reaction to the above reaction was conducted in the presence of MAO-B selective inhibitor (that is, Lazabemide) (10 μM). After that, the section was washed by soaking it in PBS containing 1% BSA for 5 minutes, and further in PBS for 5 minutes twice. After the section was dried at room temperature, an imaging plate (GE healthcare, BAS-MS 2025) was exposed to light, and an image (spartial resolution 25 μm×25 μm) was acquired by a FLA-9500 imaging analyzer plate (GE healthcare). The adjacent sections were subjected to an immunostaining using MAO-B (manufactured from Sigma, Aldrich, Co. LLC), AT8 tau (manufactured from Innogenetics, N.V.), or 6F/3D 6-amyloid (DAKO) antibody, and the resulting stainned distributions were compared with a distribution of a binding to tracer. Similar tests were conducted by using as comparative compound, (S)-[^18F] HK-5174 (WO 2017/103257 A1), and(S)-[^18F] THK-5351, each having the following structural formula respectively.
# [3] = Dynamic evaluation (body distribution) in normal mouse; type: in vivo; conditions: bone accumulation, male ICR mouse
# Protocol: Each saline containing [^18F] HK-5470 as the compound of the present invention, (S)-[^18F] HK-5174 as the comparative compound, or [^18F] HK-5351 as the ^18F labeled-compound (740 kBq) was administered intravenously via tail to male ICR mouse (6 weeks old), and after 2 min., 10 min., 30 min., 60 min., and 120 min., cervical dislocation of mouse was performed under ether anesthesia, and each organ tissue including brain was extracted, and a weight and a radioactivity of each organ was measured with Gamma counter (AccuFLEX γ7000, measured by Hitachi-Aloka Medical, Tokyo). The accumulation of radioactivity was evaluated by making the ratio of radioactivity per weight of tissue against total administered radioactivity (% Injected Dose/g of tissue; % ID/g) an index. The evaluation was conducted in a ratio of four per group.
# T1 sequence (P27338 whole entry): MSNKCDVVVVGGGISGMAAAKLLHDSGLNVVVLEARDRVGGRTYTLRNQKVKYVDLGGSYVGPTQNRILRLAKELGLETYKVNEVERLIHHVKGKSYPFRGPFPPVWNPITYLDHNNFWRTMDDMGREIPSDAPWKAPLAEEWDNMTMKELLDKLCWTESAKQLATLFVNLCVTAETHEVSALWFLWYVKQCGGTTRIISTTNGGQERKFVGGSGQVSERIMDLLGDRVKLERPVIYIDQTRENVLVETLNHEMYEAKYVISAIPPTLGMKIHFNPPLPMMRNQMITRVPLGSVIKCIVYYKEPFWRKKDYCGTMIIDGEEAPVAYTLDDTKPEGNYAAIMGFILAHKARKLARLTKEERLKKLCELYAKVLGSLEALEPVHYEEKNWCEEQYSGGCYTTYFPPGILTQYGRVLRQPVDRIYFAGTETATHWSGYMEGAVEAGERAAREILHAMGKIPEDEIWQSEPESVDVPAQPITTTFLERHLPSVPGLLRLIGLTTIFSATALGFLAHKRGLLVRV
IC50 (MAO-B [1]),binding to MAO-B (in words) (MAO-B [1]),IC50 (MAO-A),IC50 (tau),binding to tau (in words) (tau),binding against MAO-A (in words) (MAO-A),defluorination to bone [3],Structure (SMILES),"accumulation in Alzheimer's disease (AD) frontal lobe sections (MAO-B [2]; 18F labeled compound 370 kBq/mL, autoradiography)","binding in the presence of MAO-B selective inhibitor Lazabemide (MAO-B [2]; Lazabemide 10 μM, AD frontal lobe section)","specificity of binding (autoradiography conclusion) (MAO-B [2]; human brain sections, compared with MAO-B and tau immunostaining)"
5 nM,high binding,> 10000 nM,150 nM,mild binding,–,–,"CNc1ccc(-c2ccc3cc(OC[C@H](O)CF)ccc3n2)cn1 [THK-5351, reference compound]",–,–,–
–,–,713 nM,4460 nM,–,–,–,Cc1ccc(-c2ccc3cc(OC[C@H](O)CF)ccc3n2)cn1 [THK-5470],–,–,–
294 nM,–,> 10000 nM,> 10000 nM,low binding,low binding,–,Cc1ccncc1-c1ccc2cc(OC[C@H](O)CF)ccc2n1 [THK-5473],–,–,–

# Further lines, the compound ahead of its results:
Structure (SMILES),IC50 (MAO-B [1]),binding to MAO-B (in words) (MAO-B [1]),IC50 (MAO-A),IC50 (tau),binding to tau (in words) (tau),binding against MAO-A (in words) (MAO-A),defluorination to bone [3],"accumulation in Alzheimer's disease (AD) frontal lobe sections (MAO-B [2]; 18F labeled compound 370 kBq/mL, autoradiography)","binding in the presence of MAO-B selective inhibitor Lazabemide (MAO-B [2]; Lazabemide 10 μM, AD frontal lobe section)","specificity of binding (autoradiography conclusion) (MAO-B [2]; human brain sections, compared with MAO-B and tau immunostaining)"
Cc1cc(-c2ccc3cc(OC[C@H](O)CF)ccc3n2)ccn1 [THK-5471],12.9 nM,significantly high binding,1740 nM,192 nM,low binding,low binding,–,–,–,–
Cc1ncccc1-c1ccc2cc(OC[C@H](O)CF)ccc2n1 [THK-5472],550 nM,–,> 10000 nM,> 10000 nM,low binding,low binding,–,–,–,–
Cc1cncc(-c2ccc3cc(OC[C@H](O)CF)ccc3n2)c1 [THK-5474],12.2 nM,significantly high binding,> 10000 nM,9630 nM,low binding,low binding,–,–,–,–
CNc1ccc(-c2ccc3cc(OC[C@H](O)C[18F])ccc3n2)cn1 [[^18F] THK-5351],–,–,–,–,–,–,could not be confirmed,high accumulation,decrease in the binding,binds to both MAO-B and tau
